Data from BigSolDB 2.1.

## CCCCC1=NC2(CCCC2)C(=O)N1Cc1ccc(-c2ccccc2-c2nn[nH]n2)cc1
In 1,4-dioxane, 287.9 K
  solubility (mole fraction): 0.000466
In 1,4-dioxane, 293.45 K
  solubility (mole fraction): 0.000634
In 1,4-dioxane, 298 K
  solubility (mole fraction): 0.000832
In 1,4-dioxane, 303.65 K
  solubility (mole fraction): 0.00112
In 1,4-dioxane, 308.2 K
  solubility (mole fraction): 0.00142
In 1,4-dioxane, 312.9 K
  solubility (mole fraction): 0.00183
In 1,4-dioxane, 318.05 K
  solubility (mole fraction): 0.00227
In 1,4-dioxane, 322.85 K
  solubility (mole fraction): 0.00278
In THF, 278.3 K
  solubility (mole fraction): 0.00127
In THF, 282.85 K
  solubility (mole fraction): 0.00152
In THF, 288.1 K
  solubility (mole fraction): 0.00184
In THF, 292.95 K
  solubility (mole fraction): 0.00229
In THF, 297.7 K
  solubility (mole fraction): 0.00277
In THF, 303.15 K
  solubility (mole fraction): 0.00332
In THF, 308.05 K
  solubility (mole fraction): 0.00396
In THF, 312.7 K
  solubility (mole fraction): 0.00479
In THF, 318.35 K
  solubility (mole fraction): 0.00581
In THF, 322.75 K
  solubility (mole fraction): 0.00687
In acetone, 278.35 K
  solubility (mole fraction): 0.000284
In acetone, 283.15 K
  solubility (mole fraction): 0.000364
In acetone, 288.35 K
  solubility (mole fraction): 0.000444
In acetone, 293.6 K
  solubility (mole fraction): 0.00053
In acetone, 298.25 K
  solubility (mole fraction): 0.000678
In acetone, 302.95 K
  solubility (mole fraction): 0.000861
In acetone, 308.4 K
  solubility (mole fraction): 0.00105
In acetone, 312.75 K
  solubility (mole fraction): 0.00129
In acetone, 318.55 K
  solubility (mole fraction): 0.00158
In acetone, 323.1 K
  solubility (mole fraction): 0.00192
In chloroform, 277.7 K
  solubility (mole fraction): 0.0012
In chloroform, 283.3 K
  solubility (mole fraction): 0.00131
In chloroform, 287.7 K
  solubility (mole fraction): 0.00146
In chloroform, 292.7 K
  solubility (mole fraction): 0.00161
In chloroform, 297.75 K
  solubility (mole fraction): 0.00179
In chloroform, 302.85 K
  solubility (mole fraction): 0.00201
In chloroform, 307.8 K
  solubility (mole fraction): 0.00225
In chloroform, 313.4 K
  solubility (mole fraction): 0.00259
In chloroform, 317.8 K
  solubility (mole fraction): 0.00294
In chloroform, 323 K
  solubility (mole fraction): 0.00335
In ethanol, 278.6 K
  solubility (mole fraction): 0.000333
In ethanol, 283.55 K
  solubility (mole fraction): 0.000489
In ethanol, 288.5 K
  solubility (mole fraction): 0.000627
In ethanol, 292.7 K
  solubility (mole fraction): 0.000809
In ethanol, 297.8 K
  solubility (mole fraction): 0.00106
In ethanol, 303.05 K
  solubility (mole fraction): 0.00122
In ethanol, 308.5 K
  solubility (mole fraction): 0.00159
In ethanol, 313.3 K
  solubility (mole fraction): 0.0021
In ethanol, 318.5 K
  solubility (mole fraction): 0.00263
In ethanol, 323.6 K
  solubility (mole fraction): 0.00341
